Source: US7834144B2 (priority 2005, dated 2010)
Several values for one entry are separate records, joined by “and”; a condition that tells them apart may be missing. Equal values may be shown once. Read-outs that look alike come from different tables or passages of the source. Where a SMILES comes first, the peptide text is derived from it. Where no end group is shown, it is not given here. [ ]: non-standard residue; d: D form. The star is where a group is joined. ξ: configuration not given here. Biotinyl(4ξ) = O=C1N[C@H]2CSC(CCCCC(=O)*)[C@H]2N1; Nspe = C[C@H](NCC(=O)O)c1ccccc1; NhArg = N=C(N)NCCCCNCC(=O)O; Nmpe = not defined here; Nae = not defined here; Nlys = NCCCCNCC(=O)O

Tests used:
PrP^Sc = PrP^Sc (Homo sapiens, UniProt P04156); type: binding; conditions: for Exp. Mean (1 ul 10% CJD BH): streptavidin beads
PrPc = PrPc (Homo sapiens, UniProt P04156); type: binding
[1] = Table 5, 1 ul 10% CJD BH, 70% human plasma
[2] = Table 5, 70% human plasma, ELISA signal
[3] = Table 6, CJD brain homogenate in 20% human plasma
[4] = Table 6, CJD brain homogenate in 20% human plasma, ELISA signal
[5] = Table 5, 70% human plasma, streptavidin beads, ELISA signal

| Compound | Exp. Mean (as % of 68) (PrP^Sc; [1]) [%] | Exp. Mean (1 ul 10% CJD BH) (PrP^Sc; [2]) | Mean (% of 68) (PrP^Sc; [3]) [%] | Mean (PrP^Sc; [4]) | Control Mean (1 ul 10% Normal BH) (PrPc; [5]) | also measured |
| --- | --- | --- | --- | --- | --- | --- |
| CC(=O)N(CCCCN)CC(=O)N(CCCCN)CC(=O)N(CCCCNC(=N)N)CC(=O)N(CC(=O)N(CCCCN)CC(=O)N(CC(=O)N[C@@H](CCCCNC(=O)CCCCC1SC[C@@H]2NC(=O)N[C@H]12)C(N)=O)[C@@H](C)c1ccccc1)[C@@H](C)c1ccccc1 (some centres unmarked) [Peptoid Reagent II] (Ac-[Nlys][Nlys][NhArg][Nspe][Nlys][Nspe]K(Biotinyl(4ξ))-NH2) | 110.8 | 463.5 | 124.85 | 106.10 | 7.02 | – |
| CC(=O)N(CCCCN)CC(=O)N(CCCCN)CC(=O)N(CCCCN)CC(=O)N(CC(=O)N(CCCCN)CC(=O)N(CC(=O)N[C@@H](CCCCNC(=O)CCCCC1SC[C@@H]2NC(=O)N[C@H]12)C(N)=O)[C@@H](C)c1ccccc1)[C@@H](C)c1ccccc1 (some centres unmarked) [Peptoid Reagent IX] (Ac-[Nlys][Nlys][Nlys][Nspe][Nlys][Nspe]K(Biotinyl(4ξ))-NH2) | 126.5 | 528.8 | – | – | 9.47 | Exp. Mean (as % of 68) (PrP^Sc; Table 4, 1 ul 10% CJD BH, 70% human plasma): 121.9%; Exp. Mean (1 ul 10% CJD BH) (PrP^Sc; Table 4, 70% human plasma, ELISA signal): 1039.4; Control Mean (1 ul 10% Normal BH) (PrPc; Table 4, 70% human plasma, streptavidin beads, ELISA signal): 20.1 |
| CC(=O)N(CCCCN)CC(=O)N(CCCCN)CC(=O)N(CCCCN)CC(=O)N(CCCCN)CC(=O)N(CCCCN)CC(=O)N[C@@H](CCCCNC(=O)CCCCC1SC[C@@H]2NC(=O)N[C@H]12)C(N)=O (some centres unmarked) [Peptoid Reagent I] | – | – | 104.31 | 88.64 | – | CJD Mean (PrP^Sc; Table 8, 2 microliters of 10% CJD brain homogenate in 70% human plasma): 124.47; Normal Mean (PrPc; Table 8, 2 microliters of 10% normal brain homogenate in 70% human plasma): 3.31 |
| CC(=O)N(CCCCN)CC(=O)N(CC(=O)N(CCCCN)CC(=O)N(CCCCN)CC(=O)N(CC(=O)N(CCCCN)CC(=O)N[C@@H](CCCCNC(=O)CCCCC1SC[C@@H]2NC(=O)N[C@H]12)C(N)=O)[C@@H](C)c1ccccc1)[C@@H](C)c1ccccc1 (some centres unmarked) [Peptoid Reagent X] (Ac-[Nlys][Nspe][Nlys][Nlys][Nspe][Nlys]K(Biotinyl(4ξ))-NH2) | 114.5 | 478.7 | – | – | 7.28 | – |
| (GGG)KKRPKPGG [compound 68, reference compound] | – | – | – | – | – | Exp. Mean (as % of 68) (PrP^Sc): 100.0% and 100.1%; Mean (PrP^Sc): 84.98 and 137.9; Mean (% of 68) (PrP^Sc): 100.0%; Control Mean (1 ul 10% Normal BH) (PrPc): 19.2 |
| (GGG)QWNKPSKPKTN [compound 14, reference compound] | – | – | – | – | – | Mean (PrP^Sc): 4.74; Mean (% of 68) (PrP^Sc): 5.58% |
| Peptoid Reagent III: peptoid reagent comprising SEQ ID NO: 231, Nae-Nmpe-Nmpe-Nae-Nmpe-Nmpe-Nae-Nmpe-Nmpe ([Nae][Nmpe][Nmpe][Nae][Nmpe][Nmpe][Nae][Nmpe][Nmpe]; reading uncertain; also: printed as Nae-Nmpe-Nmpe-Nae-Nmpe-Nmpe-Nae-Nmpe-Nmpe) | – | – | 2.15 | 1.83 | – | – |
